Experiments:
[1] = tested on: cancer patients; assay: Retrospective analysis of electronic health records of cancer patients receiving ICT (anti-PD-1/PD-L1); type: in vivo, human
From the text: FIG. 1A: Percentages of deceased cancer patients taking dietary nutritional supplements during ICT treatment (Anti-PD-1/PDL1: Pembrolizumab/Atezolizumab) (n=7,667 including 1,888 breast cancer patients, 2,715 melanoma patients, and 3,064 prostate cancer patients). Each bar represents a group of patients who took one type of nutritional supplement along with ICT (Red dashed line indicated the median percentage of deceased cancer patients in this study). […] FIGS. 1C-1D: Tumor growth curves of orthotopic EMT6 TNBC tumor-bearing Balb/c mice (FIG. 1C, n=5) and orthotopic B16-GMCSF melanoma tumor-bearing C57BL/6 mice (FIG. 1D, left, n=5) treated with vehicle, 50 mg/kg of Vitamin E (VitE), […] anti-PDI (ICT), or Vitamin E+anti-PD1 (VitE+ICT) (n=5). Flow cytometry quantification of Granzyme B^+CD8^+ T cells in tumor tissues at 20 days post-implantation (FIG. 1D. right, n=5). FIG. 1E: Tumor growth curves of orthotopic B16-F10 melanoma tumor-bearing C57BL/6 mice with the indicated treatments (n=5). FIG. 1F: Tumor growth curves of orthotopic B16-FLT3L melanoma tumor-bearing C57BL/6 mice with the indicated treatments (n=5). […]
We retrospectively analyzed electronic health records for the clinical outcomes of cancer patients receiving ICT immunotherapies (anti-PD-1/PD-L1). […]

[2] = tested on: human MoDCs; assay: DC activation markers on human MoDCs by flow cytometry; type: cell-based
From the text: Human leukocyte concentrate (buffy coat) was collected from healthy blood donor volunteers by MD Anderson Blood Donor Center. Written informed consent was obtained from all participating blood donors and the use of anonymized leftover specimens for scientific purposes was approved by the Ethics Committee of the MD Anderson Cancer Center. For the generation of monocyte-derived dendritic cells (MoDCs), peripheral blood of healthy individuals was applied to a Ficoll gradient (BD), and mononuclear cells were freshly isolated and cultured in the dish in a humidified incubator for 1 hour to let monocytes adhere. After removing the medium with non-adherent cells, the adherent monocytes were collected through vigorous pipetting. […]
We assessed the expression of co-stimulatory molecules on human MoDCs treated with indicated dietary components and nutritional supplements including VitE (50 μg/ml). […] The mean fluorescence intensity (MFI) of each molecule was normalized to the MFI of the vehicle-treated group measured by flow cytometry. We then quantitated DC activation markers CD40, CD86, and HLA-DR on human MoDCs treated with vehicle or VitE (50 μg/ml) for 48 h in the presence of LPS (100 ng/ml), as calculated by relative mean fluorescence intensity (MFI) compared to controls.

Structure (SMILES): Cc1c(C)c2c(c(C)c1O)CC[C@@](C)(CCC[C@H](C)CCC[C@H](C)CCCC(C)C)O2 [VitE, D-α-Tocopherol]
- survival rate of cancer patients ([1]; VitE during anti-PD-1/PD-L1 treatment vs any of 14 other dietary or nutritional supplements): significantly improved survival rate
- Percentages of deceased cancer patients ([1]; took VitE during anti-PD-1/PD-L1 treatment (n=83), patients who did not 21.2% (n=7,574), Fisher P 0.0027): 8.4%
- expression of DC activation markers (relative MFI) ([2]; VitE 50 μg/ml 48 h, LPS 100 ng/ml): significantly increased expression of DC activation markers CD40, CD86, HLA-DR
- DC activation compared with other common nutritional supplements ([2]; VitE 50 μg/ml vs VitC, VitD, VitB, VitB2, VitB12, DHA, 48 h then LPS 24 h): most effectively activated DCs
